Source: ChEMBL document CHEMBL3132785, “Design, synthesis and evaluation of N6-substituted 2-aminoadenosine-5-N-methylcarboxamides as A3 adenosine receptor agonists” (Medchemcomm, 2014)

What was measured:
Adenosine receptor A3 = target: T1, Adenosine receptor A3 (Homo sapiens, UniProt P0DMS8); experiment: Agonist activity at human adenosine A3 receptor expressed in FlpIn-CHO cells assessed as inhibition of forskolin-induced cAMP accumulation after 30 mins by fluorescence assay; assay type: functional, cell-based
T1 sequence (P0DMS8 whole entry): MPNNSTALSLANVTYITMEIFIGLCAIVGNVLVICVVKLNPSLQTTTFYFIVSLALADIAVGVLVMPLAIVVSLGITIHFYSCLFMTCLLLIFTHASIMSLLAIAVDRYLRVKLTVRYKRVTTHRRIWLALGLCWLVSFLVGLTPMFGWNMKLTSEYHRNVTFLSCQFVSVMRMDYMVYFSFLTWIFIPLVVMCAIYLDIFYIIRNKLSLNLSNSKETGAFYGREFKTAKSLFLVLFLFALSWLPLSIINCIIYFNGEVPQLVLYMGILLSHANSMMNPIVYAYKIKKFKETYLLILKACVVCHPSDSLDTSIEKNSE

Adenosine receptor A1 = target: T2, Adenosine receptor A1 (Homo sapiens, UniProt P30542); experiment: Agonist activity at human adenosine A1 receptor expressed in FlpIn-CHO cells assessed as inhibition of forskolin-induced cAMP accumulation after 30 mins by fluorescence assay; assay type: functional, cell-based
T2 sequence (P30542 whole entry): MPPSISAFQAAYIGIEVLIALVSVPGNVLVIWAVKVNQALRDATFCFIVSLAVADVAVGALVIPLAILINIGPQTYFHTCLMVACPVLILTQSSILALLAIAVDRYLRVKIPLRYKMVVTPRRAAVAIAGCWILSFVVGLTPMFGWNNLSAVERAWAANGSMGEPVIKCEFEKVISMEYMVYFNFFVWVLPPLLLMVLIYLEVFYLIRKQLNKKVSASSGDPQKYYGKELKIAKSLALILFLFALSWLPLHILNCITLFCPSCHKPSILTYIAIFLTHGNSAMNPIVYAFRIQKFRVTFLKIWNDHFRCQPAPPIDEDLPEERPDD

[1] = target: Adenosine receptors; A1 & A3 (Homo sapiens) (UniProt P30542+P0DMS8); experiment: Selectivity ratio; ratio of pEC50 for human adenosine A1 receptor to pEC50 for human adenosine A3 receptor
Adenosine receptor A2b = target: T3, Adenosine receptor A2b (Homo sapiens, UniProt P29275); experiment: Agonist activity at human adenosine A2B receptor expressed in FlpIn-CHO cells assessed as inhibition of forskolin-induced cAMP accumulation after 30 mins by fluorescence assay; assay type: functional, cell-based
T3 sequence (P29275 whole entry): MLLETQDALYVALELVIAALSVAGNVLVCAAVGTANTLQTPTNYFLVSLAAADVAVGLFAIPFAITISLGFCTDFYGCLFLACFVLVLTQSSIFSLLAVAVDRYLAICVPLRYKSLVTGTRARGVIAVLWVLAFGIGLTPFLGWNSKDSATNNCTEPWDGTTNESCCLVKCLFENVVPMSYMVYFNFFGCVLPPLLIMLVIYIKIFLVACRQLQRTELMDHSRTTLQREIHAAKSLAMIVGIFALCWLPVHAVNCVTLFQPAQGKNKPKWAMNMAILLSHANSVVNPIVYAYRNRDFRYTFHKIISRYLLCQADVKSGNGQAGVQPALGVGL

Adenosine receptor A2a = Adenosine receptor A2a (Homo sapiens, UniProt P29274); experiment: Agonist activity at human adenosine A2A receptor expressed in FlpIn-CHO cells assessed as inhibition of forskolin-induced cAMP accumulation after 30 mins by fluorescence assay; assay type: functional, cell-based
Adenosine receptor A2a, sequence (P29274 whole entry): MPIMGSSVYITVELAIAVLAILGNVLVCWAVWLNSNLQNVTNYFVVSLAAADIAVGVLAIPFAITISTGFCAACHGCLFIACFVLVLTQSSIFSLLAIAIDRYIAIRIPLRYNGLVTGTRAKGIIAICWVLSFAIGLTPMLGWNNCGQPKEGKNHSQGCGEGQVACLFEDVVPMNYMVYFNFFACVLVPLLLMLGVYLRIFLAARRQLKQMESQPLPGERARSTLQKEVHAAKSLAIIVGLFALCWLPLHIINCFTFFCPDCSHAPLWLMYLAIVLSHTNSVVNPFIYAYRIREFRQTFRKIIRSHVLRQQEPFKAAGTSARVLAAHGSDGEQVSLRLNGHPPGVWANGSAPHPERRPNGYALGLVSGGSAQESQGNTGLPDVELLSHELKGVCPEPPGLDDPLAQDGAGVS

Homo sapiens [2] = species: Homo sapiens; experiment: Selectivity ratio; ratio of pEC50 for human adenosine A2B receptor to pEC50 for human adenosine A3 receptor
Homo sapiens [3] = species: Homo sapiens; experiment: Selectivity ratio; ratio of pEC50 for human adenosine A2A receptor to pEC50 for human adenosine A3 receptor

Compound | EC50 (Adenosine receptor A3) | EC50 (Adenosine receptor A1) | Selectivity ratio [1] | EC50 (Adenosine receptor A2b) | EC50 (Adenosine receptor A2a) | Selectivity ratio (Homo sapiens [2]) | Selectivity ratio (Homo sapiens [3])
CCN(CC)c1nc(NC2CCCC2)c2ncn([C@@H]3O[C@H](C(=O)NC)[C@@H](O)[C@H]3O)c2n1 | 2510 nM | > 10000 nM | > 4 | > 10000 nM | > 10000 nM | > 4 | > 4
CNC(=O)[C@H]1O[C@@H](n2cnc3c(NC4CCCCC4)nc(N)nc32)[C@H](O)[C@@H]1O | 126 nM | 63.1 nM | 1 | 2510 nM | 794 nM | 20 | 6
CNC(=O)[C@H]1O[C@@H](n2cnc3c(NCc4cccc(I)c4)nc(N)nc32)[C@H](O)[C@@H]1O | 1.58 nM | 251 nM | 158 | 158 nM | 251 nM | 100 | 158
CCNc1nc(NC2CCCC2)c2ncn([C@@H]3O[C@H](C(=O)NC)[C@@H](O)[C@H]3O)c2n1 | 39.8 nM | 501 nM | 8 | > 10000 nM | 501 nM | > 251 | 8
CNC(=O)[C@H]1O[C@@H](n2cnc3c(NCC(c4ccccc4)c4ccccc4)nc(N)nc32)[C@H](O)[C@@H]1O | 5.01 nM | 398 nM | 79 | 200 nM | 794 nM | 40 | 158
CNC(=O)[C@H]1O[C@@H](n2cnc3c(NC4CCCC4)nc(N(C)C)nc32)[C@H](O)[C@@H]1O | 631 nM | > 10000 nM | > 16 | > 10000 nM | 5010 nM | > 16 | 8
CNC(=O)[C@H]1O[C@@H](n2cnc3c(NC4CCCC4)nc(NC)nc32)[C@H](O)[C@@H]1O | 100 nM | 398 nM | 4 | > 10000 nM | 3980 nM | > 100 | 40
CNC(=O)[C@H]1O[C@@H](n2cnc3c(NCc4cccc(I)c4)ncnc32)[C@H](O)[C@@H]1O [IB-MECA] |  |  |  | 31.6 nM |  |  | 

The next lines start with the values.

EC50 (Adenosine receptor A3) | EC50 (Adenosine receptor A1) | Selectivity ratio [1] | EC50 (Adenosine receptor A2b) | EC50 (Adenosine receptor A2a) | Selectivity ratio (Homo sapiens [2]) | Selectivity ratio (Homo sapiens [3]) | Compound
3.98 nM | 316 nM | 79 | 158 nM | 79.4 nM | 40 | 20 | CNC(=O)[C@H]1O[C@@H](n2cnc3c(NCCc4ccccc4)nc(N)nc32)[C@H](O)[C@@H]1O
39.8 nM | 794 nM | 20 | 1260 nM | > 10000 nM | 32 | > 251 | CCCCNc1nc(N)nc2c1ncn2[C@@H]1O[C@H](C(=O)NC)[C@@H](O)[C@H]1O
10 nM | 316 nM | 32 | 5010 nM | > 10000 nM | 501 | > 1000 | CCCNc1nc(N)nc2c1ncn2[C@@H]1O[C@H](C(=O)NC)[C@@H](O)[C@H]1O
5.01 nM | 3980 nM | 794 | 1580 nM | > 10000 nM | 316 | > 2000 | CNC(=O)[C@H]1O[C@@H](n2cnc3c(NC)nc(N)nc32)[C@H](O)[C@@H]1O
31.6 nM | 6310 nM | 200 | 126 nM | 3160 nM | 4 | 100 | CNC(=O)[C@H]1O[C@@H](n2cnc3c(NCc4ccccc4)nc(N)nc32)[C@H](O)[C@@H]1O
0.631 nM | 316 nM | 501 | 398 nM | 398 nM | 631 | 631 | CNC(=O)[C@H]1O[C@@H](n2cnc3c(NCc4cccc(Cl)c4)nc(N)nc32)[C@H](O)[C@@H]1O
5.01 nM | 63.1 nM | 13 | 200 nM | 2510 nM | 40 | 501 | CNC(=O)[C@H]1O[C@@H](n2cnc3c(NC4CCC4)nc(N)nc32)[C@H](O)[C@@H]1O
10 nM | 2510 nM | 251 | 1580 nM | > 10000 nM | 158 | > 1000 | CCNc1nc(N)nc2c1ncn2[C@@H]1O[C@H](C(=O)NC)[C@@H](O)[C@H]1O
15.8 nM | 39.8 nM | 3 | 794 nM | 1260 nM | 50 | 79 | CNC(=O)[C@H]1O[C@@H](n2cnc3c(NC4CCCC4)nc(N)nc32)[C@H](O)[C@@H]1O
